Patent US20070253896A1, “7,9-Dihydro-Purin-8-One and Related Analogs as HSP90-Inhibitors” (CONFORMA THERAPEUTICS CORPORATION, priority 2006, published 2007)

Experiments:
HER2/Neu protein = assay: HER2 Degradation Assay; format: cell-based; conditions: Homo sapiens; MCF7 breast carcinoma cells, 16 h incubation, flow cytometry; concentration at which there was 50% degradation of the HER2/Neu protein
Experimental: MCF7 breast carcinoma cells (ATCC) were grown in Dulbecco's modified Eagle's medium (DMEM) containing 10% fetal bovine serum (FBS) and 10 mM HEPES, and plated in 24 well plates (50% confluent). Twenty-four hrs later (cells are 65-70% confluent), test compounds were added and incubated overnight for 16 h. […] The wells were washed with 1 mL phosphate buffered saline (PBS), and 200 μL trypsin was added to each well. After trypsinization was complete, 50 μL of FBS was added to each well. Then 200 μL cells was transferred to 96 well plates. The cells were pipetted up and down to obtain a single cell suspension. The plates were centrifuged at 2,500 rpm for 1 min using a Sorvall Legend RT™0 tabletop centrifuge (Kendro Laboratory Products, Asheville, N.C.). The cells were then washed once in PBS containing 0.2% BSA and 0.2% sodium azide (BA buffer). Phycoerythrin (PE) conjugated anti HER2/Neu antibody (Becton Dickinson, #340552), or PE conjugated anti-keyhole limpet hemocyanin [KLH] (Becton Dickinson; #340761) control antibody was added at a dilution of 1:20 and 1:40 respectively (final concentration was 1 μg/mL) and the cells were pipetted up and down to form a single cell suspension, and incubated for 15 mins. The cells were washed twice with 200 μL BA buffer, and resuspended in 200 μL BA buffer, and transferred to FACSCAN tubes with an additional 250 µL BA buffer. Samples were analyzed using a FACS Calibur™ flow cytometer (Becton Dickinson, San Jose, Calif.) equipped with Argon-ion laser that emits 15 mW of 488 nm light for excitation of the PE fluorochrome. 10,000 events were collected per sample. A fluorescence histogram was generated and the mean fluorescence intensity (MFI) of each sample was determined using Cellquest software. The background was defined as the MFI generated from cells incubated with control IgG-PE, and was subtracted from each sample stained with the HER2/Neu antibody. Cells incubated with DMSO were used as untreated controls since the compounds were resuspended in DMSO. Percent degradation of HER2 was calculated as follows: % HER2 degraded=[(MFI untreated cells−MF1 treated cells)/MFI untreated cell]×100
IC50 is defined as the concentration at which there was 50% degradation of the HER2/Neu protein.

[1] = system: MCF7 breast carcinoma cells; assay: MTS Assay; format: cell-based; conditions: Homo sapiens, concentration giving 50% reduction in viable cell number
Experimental: MTS assays measure the cytotoxicity of geldanamycin derivatives. MTS (3-(4,5-dimethylthiazol-2-yl)-5-(3-carboxymethoxyphenyl)-2-(4-sulfophenyl)-2H-tetrazolium) is a tetrazolium dye that is converted to a formazan product by dehydrogenase enzymes of metabolically active cells (Corey, A. et al. “Use of an aqueous soluble tetrazolium/formazan assay for cell growth assays in culture,” Cancer Commun. 1991, 3, 207-212). Cells were seeded in 96 well plates at 2000 cells/well and allowed to adhere overnight in Dulbecco's modified Eagle's medium supplemented with 10% fetal bovine serum. The final culture volume was 100 μl. Viable cell number was determined by using the Celltiter 96 AQueous Non-radioactive Cell Proliferation Assay (Promega, Madison Wis.). The MTS/PMS (phenazine methosulfate) solution was mixed at a ratio of 20:1, and 20 μL was added per well to 100 μl of culture medium. After 2-4 hours, the formation of the formazan product was measured at 490 nm absorbance using a multiwell plate spectrophotometer. Background was determined by measuring the Abs 490 nm of cell culture medium and MTS-PMS in the absence of cells and was subtracted from all values. Percent viable cells was calculated as follows: % viable cells=(Abs at 490 nm treated cells/Abs at 490 nm untreated cells)×100
The effect of selected compounds of the invention on MCF7 breast carcinoma cells according to the MTS assay is summarized in Table 2. IC50 was defined as the concentration of the compound which gave rise to 50% reduction in viable cell number.

SMILES	IC50 (HER2/Neu protein) [nM]	IC50 [1] [nM]
Cc1cnc(Cn2c(=O)[nH]c3c(Cl)nc(N)nc32)c(C)c1I [Example 6, 2-amino-6-chloro-9-((4-iodo-3,5-dimethylpyridin-2-yl)methyl)-7H-purin-8(9H)-one]	70	300
CCCN(CCC)CCn1c(=O)n(Cc2ncc(C)c(I)c2C)c2nc(N)nc(Cl)c21 [Example 107, 2-amino-6-chloro-7-(2-(dipropylamino)ethyl)-9-((4-iodo-3,5-dimethylpyridin-2-yl)methyl)-7H-purin-8(9H)-one]	130	> 1000
Cc1cnc(Cn2c(=O)n(CCN(C(C)C)C(C)C)c3c(Cl)nc(N)nc32)c(C)c1I [Example 98, 2-amino-6-chloro-7-(2-(diisopropylamino)ethyl)-9-((4-iodo-3,5-dimethylpyridin-2-yl)methyl)-7H-purin-8(9H)-one]	30	600
Cc1cnc(Cn2c(=O)n(Cc3ccccn3)c3c(Cl)nc(N)nc32)c(C)c1I [Example 99, 2-amino-6-chloro-9-((4-iodo-3,5-dimethylpyridin-2-yl)methyl)-7-(pyridin-2-ylmethyl)-7H-purin-8(9H)-one]	120	> 1000
Cc1cnc(Cn2c(=O)n(CCn3cccc3)c3c(Cl)nc(N)nc32)c(C)c1I [Example 96, 7-(2-(1H-pyrrol-1-yl)ethyl)-2-amino-6-chloro-9-((4-iodo-3,5-dimethylpyridin-2-yl)methyl)-7H-purin-8(9H)-one]	42	300
CC(=O)n1c(=O)n(Cc2ncc(C)c(I)c2C)c2nc(N)nc(Cl)c21 [Example 105, 7-acetyl-2-amino-6-chloro-9-((4-iodo-3,5-dimethylpyridin-2-yl)methyl)-7H-purin-8(9H)-one]	90	300

The next lines start with the values.

IC50 (HER2/Neu protein) [nM]	IC50 [1] [nM]	SMILES
140	> 1000	COc1c(C)cnc(Cn2c(=O)n(CCC=C(C)C)c3c(Cl)nc(N)nc32)c1C [Example 20, 2-Amino-6-chloro-9-(4-methoxy-3,5-dimethyl-pyridin-2-ylmethyl)-7-(4-methyl-pent-3-enyl)-7,9-dihydro-purin-8-one]
140	700	Cc1cnc(Cn2c(=O)n(CCN(C)C(C)C)c3c(Cl)nc(N)nc32)c(C)c1I [Example 108, 2-amino-6-chloro-9-((4-iodo-3,5-dimethylpyridin-2-yl)methyl)-7-(2-(isopropyl(methyl)amino)ethyl)-7H-purin-8(9H)-one]
160	1000	C=CCCCn1c(=O)n(Cc2ncc(C)c(OC)c2C)c2nc(N)nc(Cl)c21 [Example 35, 2-Amino-6-chloro-9-(4-methoxy-3,5-dimethyl-pyridin-2-ylmethyl)-7-pent-4-enyl-7,9-dihydro-purin-8-one]
120	1000	COc1c(C)cnc(Cn2c(=O)n(CCn3cccc3)c3c(Cl)nc(N)nc32)c1C [Example 89, 2-Amino-6-chloro-9-(4-methoxy-3,5-dimethyl-pyridin-2-ylmethyl)-7-(2-pyrrol-1-yl-ethyl)-7,9-dihydro-purin-8-one]
160	> 1000	COc1c(C)cnc(Cn2c(=O)n(CCC(F)=C(F)F)c3c(Cl)nc(N)nc32)c1C [Example 71, 2-Amino-6-chloro-9-(4-methoxy-3,5-dimethyl-pyridin-2-ylmethyl)-7-(3,4,4-trifluoro-but-3-enyl)-7,9-dihydro-purin-8-one]
170	1000	COc1c(C)cnc(Cn2c(=O)n(Cc3ccccn3)c3c(Cl)nc(N)nc32)c1C [Example 82, 2-Amino-6-chloro-9-(4-methoxy-3,5-dimethyl-pyridin-2-ylmethyl)-7-pyridin-2-ylmethyl-7,9-dihydro-purin-8-one]
160	> 1000	COC(=O)c1ccc(Cn2c(=O)n(Cc3ncc(C)c(OC)c3C)c3nc(N)nc(Cl)c32)cc1 [Example 80, 4-[2-Amino-6-chloro-9-(4-methoxy-3,5-dimethyl-pyridin-2-ylmethyl)-8-oxo-8,9-dihydro-purin-7-ylmethyl]-benzoic acid methyl ester]
